Assay results taken from patent US8962674B2 (Tokyo Institute of Technology, priority 2006, dated 2015).
pIC50: −log10 of the molar value.

How the values were obtained:
aggregated Aβ1-42 = aggregated Aβ1-42 (Homo sapiens (Human), UniProt P05067); test: Aβ1-42 degradation assay on pre-formed aggregates, thioflavin T fluorescence (Test Example 3); assay type: biochemical; details: aggregated Aβ, 1 hr at 37° C., read-out: IC50 (Aβ1-42 aggregate degradation, Table 2 head)
Protocol: Aβ1-42 (Peptide Institute) was dissolved in a 0.1% NH3 solution at a concentration of 60 μM, and incubated for 24 hr at 37° C. to form the aggregation. 25 μM of the aggregated Aβ solution diluted by 100 mM phosphate buffer (pH 7.4) and the compound dilution containing 2% DMSO were mixed in equal amount. The mixtures were incubated for 1 hr at 37° C. in a black 96-well plate. After incubation, 6 μM thioflavin T (Sigma) in 100 mM of glycine-NaOH buffer, pH 8.5, was added, and fluorescence was measured for excitation at 440 nm and emission at 486 nm. The solution with DMSO only, instead of the compound solution, was used as a negative control. The activity was calculated as a percentage of the negative control.

[1] = biological target: recombinant human β-secretase (rhBACE-1) (Homo sapiens (Human), UniProt P56817); test: β-Secretase enzyme inhibition assay (Test Example 1); assay type: biochemical; details: compound solution 3 μM (FIG. 1 legend: 1.0 μM), 37° C., 2 hr, fluorescent substrate peptide
Protocol: β-Secretase Enzyme Inhibition Assay
Compounds were dissolved in dimethylsulfoxide (DMSO), and further diluted in 0.1 M sodium acetate buffer (with 150 mM sodium chloride, pH 4.5). The solution with no compound was used as a negative control. Then, 100 μL of these solutions (compound concentration: 3 μM), 1 μL of recombinant human β-secretase (rhBACE-1, R&D), and 5 μL of the fluorescent substrate peptide were mixed in a black 96-well plate (Nunc). After mixtures were incubated in the dark at 37° C. for 2 hr, the fluorescence intensities of the mixtures were measured by fluorescence microplate reader (Wallac) at 540 nm for excitation and at 590 nm for emission. The inhibition ratio was calculated as a percentage of the negative control. The sequence of the peptide was […] and labeled with fluorescent donor (Cy3) at Ser-1 and with quencher (Cy5Q) at Lys-9, respectively (Invitrogen).

recombinant human BACE-1 = recombinant human BACE-1 (Homo sapiens (Human), UniProt P56817); test: Calculation of 50% inhibitory concentration (IC50) of BACE-1 (Test Example 5); assay type: biochemical; details: 37° C., 2.5 hr, fluorescent substrate peptide
Protocol: Compounds were dissolved in 0.1 M sodium acetate buffer (with 150 mM sodium chloride, pH 4.5) to each concentration with DMSO (concentration of compounds: 0.3, 0.9, 3.0, 9.0, and 30.0). The final concentration of DMSO was 10%. The solution with no compound was used as a negative control. 15 μL of these solutions, recombinant human BACE-1 (1.0 U/ml, Invitrogen), and the fluorescent substrate peptide (2.5 nM) were mixed in a black 384-well plate (Costar). Then, mixtures were incubated in the dark at 37° C. for 2.5 hr. The fluorescence intensities of the mixtures were measured at 540 nm for excitation and at 590 nm for emission. The inhibition ratio was calculated as a percentage of the negative control. The sequence of the peptide was […] and labeled with Cy3 at Ser-1 and with Cy5Q at Lys-9. Final concentrations of compounds were as follows: […].

[2] = tested on: cerebral cortex cells of embryonic Wistar rat; test: Cytoprotection from Aβ1-42-induced cell cytotoxicity, MTT (Test Example 4); assay type: cell-based; details: compound 24 hr, then 5 μM Aβ1-42 for 48 hr
Protocol: Cytoprotection from Aβ1-42-Induced Cell Cytotoxicity
Cerebral cortex was obtained from 19-20 day-old embryonic Wistar rat. The tissue was minced, dissociated using scalpel blades and Pasteur pipette, and centrifuged at 100 rpm. Precipitated cells were filtered using […] cell strainer, and single cells were prepared. These cells were suspended in Eagle's Minimum Essential Medium (EMEM) containing 10% Fetal bovine serum, and plated into 48-well tissue culture plates (Becton Dickinson) at 200 μL/well and 1.7×10^5 cells/cm^2. Cultures were incubated at 37° C. in a humidified atmosphere of 5% CO2.
After 3, 5, and 7 days in culture, the medium was replaced.
After 9 days, compounds were dissolved in DMSO and diluted in culture media so that the final concentration of DMSO in culture media was 0.1%, and each solution was added to each well at […] for 24 hr. The control solution contained 0.1% DMSO.
After 24 hr, Aβ1-42 was dissolved in a 0.1% NH3 solution at a concentration of 500 μM and diluted in culture media to a final concentration of 5 μM, and the Aβ solution was added to each well at […] for 48 hr. After 48 hr, cultures were treated with 0.5% MTT solution (Nacalai Tesque) for 35 min. The MTT solution was replaced with 2-propanol (200 μL), and the culture plates were shook to dissolve formazan. Absorption of the solution was measured at 570 nm.

Aβ1-42 = Aβ1-42 (Homo sapiens (Human), UniProt P05067); test: Aβ aggregation inhibition assay, thioflavin T fluorescence (Test Example 2); assay type: biochemical; details: 24 hr at 37° C.
Protocol: Aβ3-42 aggregation Inhibition Assay
Aβ1-42 was dissolved in a 0.1% NH3 solution at a concentration of 100 μM and centrifuged for 1.5 hr at 200,000 g, and the supernatant are used in the assay. […] The mixtures were incubated for 24 hr at 37° C. in a black 96-well plate.

aggregated Aβ1-42, sequence (P05067 672-713): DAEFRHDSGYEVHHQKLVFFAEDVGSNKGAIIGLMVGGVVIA
Aβ1-42, sequence (P05067 672-713): as above
recombinant human BACE-1, sequence (P56817 46-501): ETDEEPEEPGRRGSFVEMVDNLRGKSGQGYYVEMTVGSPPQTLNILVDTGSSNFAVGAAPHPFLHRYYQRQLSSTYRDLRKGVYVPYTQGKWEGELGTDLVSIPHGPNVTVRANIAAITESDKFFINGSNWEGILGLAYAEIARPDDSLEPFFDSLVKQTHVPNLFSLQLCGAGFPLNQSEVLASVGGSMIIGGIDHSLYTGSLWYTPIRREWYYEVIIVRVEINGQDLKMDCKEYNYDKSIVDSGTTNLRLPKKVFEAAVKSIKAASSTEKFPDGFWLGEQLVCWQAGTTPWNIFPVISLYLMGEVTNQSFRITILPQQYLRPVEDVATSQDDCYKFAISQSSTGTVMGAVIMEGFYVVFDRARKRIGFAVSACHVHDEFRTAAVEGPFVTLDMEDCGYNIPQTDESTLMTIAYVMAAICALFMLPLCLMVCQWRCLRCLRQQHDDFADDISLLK
recombinant human β-secretase (rhBACE-1), sequence (P56817 46-501): as above

SMILES	melting point	inhibitory effect on BACE-1 activity (IC50 shown in FIG. 2) (recombinant human BACE-1)	also measured
COc1cc(/C=C/C(=O)CC(=O)/C=C/c2ccc(S(C)(=O)=O)cc2)ccc1O [CU005, (1E,6E)-1-(4-hydroxy-3-methoxyphenyl)-7-(4-methanesulfonylphenyl)hepta-1,6-diene-3,5-dione]	117 to 120 °C		pIC50 (aggregated Aβ1-42): 5.48
O=C(/C=C/c1ccc(O)cc1)CC(=O)/C=C/c1ccc2cc[nH]c2c1 [CU189, (1E,6E)-1-(4-hydroxyphenyl)-7-(1H-indol-6-yl)hepta-1,6-diene-3,5-dione]	238 to 243 °C	inhibitory effect on BACE-1 activity at relatively low concentration	inhibition of BACE-1 enzyme activity (inhibitory activities (%) shown in FIG. 1) [1]: strongly inhibited
O=C(/C=C/c1ccc(O)cc1)CC(=O)/C=C/c1ccccc1O [CU080, (1E,6E)-1-(2-hydroxyphenyl)-7-(4-hydroxyphenyl)hepta-1,6-diene-3,5-dione]			MEC, minimal effective concentration (cytoprotection) [2]: 1.0 µM
COc1ccc(O)cc1/C=C/C(=O)CC(=O)/C=C/c1ccc(O)cc1 [CU177, (1E,6E)-1-(4-hydroxyphenyl)-7-(5-hydroxy-2-methoxyphenyl)hepta-1,6-diene-3,5-dione]	183 to 186 °C		pIC50 (Aβ1-42): 5.96
COc1cc(/C=C/C(=O)CC(=O)/C=C/c2ccc(O)c(OC)c2)ccc1O [curcumin, reference compound]			MEC, minimal effective concentration (cytoprotection) [2]: 10 µM
O=C(/C=C/c1ccc(O)cc1)CC(=O)/C=C/c1cc(O)cc(O)c1 [CU092, (1E,6E)-1-(3,5-dihydroxyphenyl)-7-(4-hydroxyphenyl)hepta-1,6-diene-3,5-dione]	238 to 241 °C		MEC, minimal effective concentration (cytoprotection) [2]: 3.0 µM
O=C(/C=C/c1ccc(O)cc1)CC(=O)/C=C/c1cc(OCc2ccccc2)ccc1[N+](=O)[O-] [CU475, (1E,6E)-1-(5-benzyloxy-2-nitrophenyl)-7-(4-hydroxyphenyl)hepta-1,6-diene-3,5-dione]	168 to 172 °C	inhibitory effect on BACE-1 activity at relatively low concentration	
O=C(/C=C/c1ccc(O)cc1)CC(=O)/C=C/c1cccc(O)c1 [CU078, (1E,6E)-1-(3-hydroxyphenyl)-7-(4-hydroxyphenyl)hepta-1,6-diene-3,5-dione]	217 °C		pIC50 (Aβ1-42): 7.05; MEC, minimal effective concentration (cytoprotection) [2]: 0.1 µM
COc1cc(N(C)C)ccc1/C=C/C(=O)CC(=O)/C=C/c1ccc(O)cc1 [CU153, (1E,6E)-1-(4-dimethylamino-2-methoxyphenyl)-7-(4-hydroxyphenyl)hepta-1,6-diene-3,5-dione]	100 to 105 °C		pIC50 (Aβ1-42): 6.06
COc1cc(/C=C/C(=O)CC(=O)/C=C/c2ccc[nH]2)ccc1O [CU022, (1E,6E)-1-(4-hydroxy-3-methoxyphenyl)-7-(1H-pyrrol-2-yl)hepta-1,6-diene-3,5-dione]	83 to 87 °C		pIC50 (aggregated Aβ1-42): 5.28
COc1cc(/C=C/C(=O)CC(=O)/C=C/c2ccc(N(C)C)c3ccccc23)ccc1O [CU019, (1E,6E)-1-(4-dimethylaminonaphthalen-1-yl)-7-(4-hydroxy-3-methoxyphenyl)hepta-1,6-diene-3,5-dione]			pIC50 (aggregated Aβ1-42): 6.40
Cc1ccc(/C=C/C(=O)CC(=O)/C=C/c2ccc(O)cc2)cc1C [CU056, (1E,6E)-1-(3,4-dimethylphenyl)-7-(4-hydroxyphenyl)hepta-1,6-diene-3,5-dione]	150 to 152 °C		pIC50 (Aβ1-42): 6.55
O=C(/C=C/c1ccc2ccn(Cc3ccccc3)c2c1)CC(=O)CCc1ccc(O)cc1 [CU520, (E)-1-(1-benzyl-1H-indol-6-yl)-7-(4-hydroxyphenyl)hept-1-ene-3,5-dione]	45 to 50 °C	inhibitory effect on BACE-1 activity at relatively low concentration	
O=C(/C=C/c1cc(O)ccc1[N+](=O)[O-])CC(=O)CCc1ccc(O)cc1 [CU530, (E)-1-(5-hydroxy-2-nitrophenyl)-7-(4-hydroxyphenyl)hept-1-ene-3,5-dione]	62 to 70 °C	inhibitory effect on BACE-1 activity at relatively low concentration	
O=C(/C=C/c1ccc(O)cc1)CC(=O)/C=C/c1cc(O)ccc1Br [CU532, (1E,6E)-1-(2-bromo-5-hydroxyphenyl)-7-(4-hydroxyphenyl)hepta-1,6-diene-3,5-dione]	182 to 186 °C	inhibitory effect on BACE-1 activity at relatively low concentration	
